Among the data in ChEMBL document CHEMBL3045437, “Synthesis of potential anticancer derivatives of pyrido[1,2-a]benzimidazoles” (Med Chem Res, 2012) are IC50 values, retold here.

Converted amounts (≈) assume the structure as drawn.

As a reminder, the IC50 is the concentration that inhibits the measured activity by half. Read a high IC50 as lower potency.

The test system of this assay is MCF7. Briefly: Cytotoxicity against Homo sapiens (human) MCF7 cells after 48 hr by SRB assay. The conditions noted are these: MCF7, 48 h. The format is functional, cell-based.
In the case of `N#Cc1c(-c2ccccc2)cc(Cl)n2c1nc1ccc(C(=O)O)cc12`, the midpoint of inhibition, the IC50, lay at 3.58 µg/mL (≈ 10.3 µM).
Next, `Cc1c(CCCl)c(Cl)n2c(nc3ccc(Cl)cc32)c1C#N`: 7.09 µg/mL (≈ 20.9 µM); `Cc1c(CCCl)c(Cl)n2c(nc3ccc(C(=O)O)cc32)c1C#N`: 9.07 µg/mL (≈ 26 µM).
`Cc1cc(N2CCN(c3ccccc3F)CC2)n2c(nc3ccc(Cl)cc32)c1C#N`: the IC50 was 5.72 µg/mL (≈ 13.6 µM).
`Cc1cc(N2CCN(c3ccccc3F)CC2)n2c(nc3ccc(C(=O)O)cc32)c1C#N` gave an IC50 of 12.6 µg/mL (≈ 29.3 µM). This IC50 lies about 2.2-fold higher than the previous one.
Regarding `N#Cc1c(-c2ccccc2)cc(N2CCN(c3ccccc3F)CC2)n2c1nc1ccc(Cl)cc12`, the IC50 was 10.4 µg/mL (≈ 21.6 µM). The IC50 values of the last two molecules are within 1.5-fold of each other.
In the case of `N#Cc1c(-c2ccccc2)cc(N2CCN(c3ccccc3F)CC2)n2c1nc1ccc(C(=O)O)cc12`, the IC50 is 17.6 µg/mL (≈ 35.9 µM).
For the molecule `Cc1c(CCN2CCN(c3ccccc3F)CC2)c(N2CCN(c3ccccc3F)CC2)n2c(nc3ccc(Cl)cc32)c1C#N`, the IC50 is 14 µg/mL (≈ 22.4 µM).
Next, `Cc1c(CCN2CCN(c3ccccc3F)CC2)c(N2CCN(c3ccccc3F)CC2)n2c(nc3ccc(C(=O)O)cc32)c1C#N`: 9.9 µg/mL (≈ 15.6 µM); `Cc1cc(=O)n2c([nH]c3ccc(Cl)cc32)c1C#N`: 3.43 µg/mL (≈ 13.3 µM); `Cc1cc(=O)n2c([nH]c3ccc(C(=O)O)cc32)c1C#N`: 14.7 µg/mL (≈ 55 µM).
In turn, `N#Cc1c(-c2ccccc2)cc(=O)n2c1[nH]c1ccc(Cl)cc12` had an IC50 of 3.58 µg/mL (≈ 11.2 µM).
In the case of `N#Cc1c(-c2ccccc2)cc(=O)n2c1[nH]c1ccc(C(=O)O)cc12`, the IC50 was found to be 3.99 µg/mL (≈ 12.1 µM).
Consider `Cc1c(CCO)c(=O)n2c([nH]c3ccc(Cl)cc32)c1C#N`, for which it took 14.6 µg/mL (≈ 48.5 µM) to reach half-maximal inhibition (IC50).
For `Cc1c(CCO)c(=O)n2c([nH]c3ccc(C(=O)O)cc32)c1C#N`, it took 10.5 µg/mL (≈ 33.9 µM) to reach half-maximal inhibition (IC50).
With `Cc1cc(Cl)n2c(nc3ccc(Cl)cc32)c1C#N`, half-maximal inhibition (IC50) required 8.61 µg/mL (≈ 31.2 µM). The IC50 values of the last two molecules are within 1.5-fold of each other.
As for `Cc1cc(Cl)n2c(nc3ccc(C(=O)O)cc32)c1C#N`, the IC50 worked out at 12.8 µg/mL (≈ 44.9 µM).
Next, `N#Cc1c(-c2ccccc2)cc(Cl)n2c1nc1ccc(Cl)cc12`: 3.89 µg/mL (≈ 11.5 µM).
